Measurements published in ChEMBL document CHEMBL3400119, “Triazole-containing N-acyl homoserine lactones targeting the quorum sensing system in Pseudomonas aeruginosa” (Bioorg Med Chem, 2015).
Activity calls are given as the source filed them. The rule behind the calls is not given here.

Experiments:
[1] = Agonist activity at lasB in Escherichia coli harboring lasB-gfp gene by green fluorescence protein reporter assay
[2] = Antagonist activity at luxI in Escherichia coli harboring luxI-gfp gene assessed as inhibition of 3-oxo-C6-HSL-induced quorum sensing by green fluorescence protein reporter assay
[3] = test system: Pseudomonas aeruginosa; experiment: (§1) Antagonist activity at rhlA in Pseudomonas aeruginosa harboring rhlA-gfp gene assessed as inhibition of […]-induced quorum sensing by green fluorescence protein reporter assay
[4] = molecular target: Elastase (Pseudomonas aeruginosa (strain ATCC 15692 / PAO1 / 1C / PRS 101 / LMG12228)) (UniProt P14756); experiment: Antagonist activity at lasB in Pseudomonas aeruginosa harboring lasB-gfp gene assessed as inhibition of […]-induced quorum sensing by green fluorescence protein reporter assay
Chain of Elastase (Pseudomonas aeruginosa (strain ATCC 15692 / PAO1 / 1C / PRS 101 / LMG12228)) (P14756 198-498 limits assumed): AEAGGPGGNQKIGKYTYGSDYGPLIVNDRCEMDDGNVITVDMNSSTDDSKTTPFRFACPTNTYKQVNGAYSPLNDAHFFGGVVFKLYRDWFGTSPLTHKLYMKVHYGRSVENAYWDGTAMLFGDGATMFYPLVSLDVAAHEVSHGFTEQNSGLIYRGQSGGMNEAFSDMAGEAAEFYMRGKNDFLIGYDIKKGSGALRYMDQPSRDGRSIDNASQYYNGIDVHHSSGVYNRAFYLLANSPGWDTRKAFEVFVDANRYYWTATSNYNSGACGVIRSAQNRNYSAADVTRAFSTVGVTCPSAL

[5] = as §1

SMILES	EC50 [1]	IC50 [2]	inhibition [3]	inhibition [4]	IC50 [5]
O=C(Cn1cc(C2CCCCC2)nn1)N[C@H]1CCOC1=O	44 µM	342 µM	inactive		
CCCCc1cn(CC(=O)N[C@H]2CCOC2=O)nn1	57 µM	751 µM	inactive	inactive	
CCCCCc1cn(CC(=O)N[C@H]2CCOC2=O)nn1	1 µM				
CCCCCCc1cn(CC(=O)N[C@H]2CCOC2=O)nn1	12 µM	578 µM	inactive		
Nc1cccc(-n2cc(CCC(=O)N[C@H]3CCOC3=O)nn2)c1	2 µM				
O=C(Cn1cc(C2CCCC2)nn1)N[C@H]1CCOC1=O	3 µM	50 µM			898 µM
CCCc1cn(CC(=O)N[C@H]2CCOC2=O)nn1		71 µM			927 µM
O=C(Cn1cc(-c2ccsc2)nn1)N[C@H]1CCOC1=O		55 µM			1030 µM
O=C(Cn1cc(-c2ccccc2)nn1)N[C@H]1CCOC1=O		192 µM	inactive	inactive	
[N-]=[N+]=Nc1ccc(C(=O)N[C@H]2CCOC2=O)cc1		244 µM	inactive		
O=C(Cn1cc(CC2CCCCC2)nn1)N[C@H]1CCOC1=O	8 µM				
Nc1ccc(-n2cc(-c3ccc(C(=O)N[C@H]4CCOC4=O)cc3)nn2)cc1		95 µM	inactive	inactive	
O=C(Cn1cc(C2CC2)nn1)N[C@H]1CCOC1=O		88 µM			799 µM
O=C(Cn1cc(CSc2ccccc2)nn1)N[C@H]1CCOC1=O	2 µM	602 µM	inactive		
[N-]=[N+]=Nc1cccc(C(=O)N[C@H]2CCOC2=O)c1		223 µM	inactive	inactive	
O=Cc1cccc(-n2cc(CCC(=O)N[C@H]3CCOC3=O)nn2)c1	71 µM	5 µM	inactive		
